Measured values published in patent US11786540B2, “Gliflozins and a method for their delivery during resuscitation from cardiac arrest to improve survival outcomes” (Rosalind Franklin University of Medicine and Science, priority 2020, dated 2023).

Tests used:
[1] = test system: swine model of cardiac arrest; details: given immediately before starting CPR; cited from earlier work
[2] = test system: open-chest swine model of VF; assay: open-chest swine model of electrically-induced VF and simulated CPR using extracorporeal circulation; format: in vivo
Description: The studies were conducted in an open-chest swine model of electrically-induced VF and simulated CPR with controlled coronary blood flow (CBF) using extracorporeal circulation (ECC).^13,14 With a high degree of precision, the ECC model allowed subjecting the myocardium to low-flow reperfusion (as CPR does) after a period of ischemia during untreated VF (as it typically occurs in patients). The model reproduces adverse myocardial effects observed during CPR including increased myocardial wall thickness that is consistently ameliorated by NHE-1 inhibition. In addition, the model also reproduces post-resuscitation myocardial dysfunction which is also ameliorated by NHE-1 inhibition. In addition, the open-chest model allows for direct assessment of the myocardium via a micro-tip pressure transducer in the left ventricle to measure left ventricular pressure with high fidelity; a flow probe around the left anterior descending coronary artery to measure coronary blood flow as a surrogate of total myocardial blood flow; ultrasonic piezoelectric crystals to continuously measure the diameter (short-axis) and wall thickness of the left ventricle at the level of the mitral valve; and echocardiography to measure left ventricle volumes and wall thickness through a 4-chamber and 2-chamber views of the heart.
Therefore, we chose an EMPA dose expected to achieve a blood concentration of 1 μM after initial blood volume distribution in our swine model of VF and resuscitation by ECC. For this purpose, a stock solution was first prepared by dissolving 90.2 mg of EMPA (Sigma, St. Louis, Mo., MW 450.92) in 10 ml of 100% DMSO to obtain a 20 mM solution. This stock solution was diluted in saline to 200 μM. Given an estimated blood volume of 2.5 L for a 40-kg pig, 2.5 μmoles (i.e., 12.5 ml of the 200 μM solution) were given in bolus dose to attain the target blood concentration of 1 μM EMPA after initial blood volume distribution. […] Control pigs received 12.5 ml of 0.9% NaCl.
The bolus of EMPA or control solution was given at minute 9 of untreated VF through the venous port of the extracorporeal circuit. VF was maintained untreated for 10 minutes. ECC was then initiated and maintained for an additional 16 minutes. The ECC flow was titrated with the aid of a closed-loop system to generate and maintain a CBF of 25% of the baseline CBF, measured in the left anterior descending coronary artery.^20
Six male domestic pigs (38.2 to 43.3 kg) were fasted overnight, sedated with ketamine hydrochloride (30 mg/kg intramuscular), and anesthetized with propofol (2 mg/kg through an ear vein). The trachea was intubated with a size-7.5 orotracheal tube and positive pressure ventilation initiated with 50% oxygen using a volume-controlled ventilator (840 Ventilator System, Nellcor Puritan Bennett, Boulder, Colo.) set to deliver 10 mL/kg at a peak flow of 60 L/min with an FiO2 of 0.5. The respiratory rate was adjusted to attain an end-tidal PCO2 (PETCO2) between 38 and 42 mmHg. Anesthesia was maintained using isoflurane (1.75%-2.75%). Rectal temperature was maintained between 37.5 and 38.5° C. with a servo-controlled water-circulated blanket (Blanketrol II, Cincinnati Sub-Zero, Cincinnati, Ohio). The ECG signal was obtained during spontaneous circulation through leads placed on the right forelimb, left forelimb, and left hindlimb. During VF, the ECG signal was obtained through pads from a biphasic waveform defibrillator (E series; ZOLL Medical Corporation, Chelmsford, Mass.) placed on the shaved sides of the chest along the midaxillary line.
A 7 F fluid-filled catheter was advanced from the right femoral artery into the descending thoracic aorta to measure aortic pressure. A 7 F thermodilution balloon-tipped catheter was advanced through the right external jugular vein into the pulmonary artery to measure cardiac output, right atrial pressure, pulmonary artery pressure, and pulmonary artery occlusive pressure (Swan-Ganz, Edwards Lifesciences, Irvine, Calif.). […]

CaMKII = details: 24 hours exposure; cited from earlier work
isolated mice hearts = details: cited from earlier work
[3] = dose 0.5 mg/kg; cited from earlier work
[4] = test system: closed-chest swine model of VF; format: in vivo
Description: We used a swine model of VF and conventional closed-chest resuscitation with survival up to 240 minutes. We conducted 16 experiments in which 8 were randomized to receive EMPA and 8 to vehicle control given intravenously immediately before starting CPR.
Domestic pigs (35.2 to 39.6 kg) were sedated, anesthetized, intubated, and started on mechanical ventilation as for the experiments in the open-chest model. For blood sampling and measuring aortic pressures, a 6F dual lumen pressure monitoring catheter (Langston, Vascular Solutions) was advanced through the right femoral artery past the bifurcation and into the descending thoracic aorta. For measuring left ventricular pressures, a 7F fluid-filled pigtail catheter (Langston, Vascular Solutions) was advanced through the surgically exposed right carotid artery and into the left ventricle. For blood sampling and for measuring core temperature, cardiac output by thermodilution technique, and pressures in the right atrium and pulmonary artery, a balloon-tipped pulmonary artery catheter (Swan-Ganz, Edwards Lifesciences, Irvine, Calif.) was advanced through the right external jugular vein and into the pulmonary artery. For induction of VF, a 5F pacing electrode was advanced through the right internal jugular vein into the right ventricle (FIG. 4).
VF was induced by delivering an alternating current (1-10 mA) to the right ventricular endocardium and left untreated without ventilation for 10 minutes. At the end of untreated VF, chest compressions were started using a mechanical compressor (Michigan Thumper Model 1007, Grand Rapids, Mich.) set to compress the chest at a rate of 100 per minute with its depth titrated attempting to generate an aortic diastolic pressure of at least 25 mmHg but without exceeding a maximum compression depth of 5 cm. Ventilation with 100% oxygen was delivered using a 350-ml self-inflating pediatric bag (Lifesaver Resuscitation Bags; Teleflex Medical, N.C.). Compressions and ventilations were delivered sequentially as recommended when the airway is un-protected. Accordingly, 30 chest compressions were delivered in 18 seconds followed by 2 breaths during a 6 second compression pause. Electrical shocks were delivered through the chest pads using a biphasic waveform defibrillator (R series Zoll Corp.) with the energy set at 200-J. Shocks were delivered guided by the likelihood of successful resuscitation using an algorithm developed by us based on real-time monitoring of the VF waveform in the frequency domain known as amplitude spectral area (AMSA).^24 Epinephrine (1 mg-bolus dose; 1 ml) was delivered through the pulmonary artery catheter into the right atrium and the line flushed with 10 ml of 0.9% NaCl. The timing of epinephrine delivery was based on an AMSA advisory criterion avoiding delivery if AMSA predicted a high likelihood of shock success within the ensuing 120 seconds, with a minimum interval between doses of 240 seconds. The purpose of AMSA advisory criteria was to minimize administration of epinephrine—given its known adverse post-resuscitation effects—if not required for successful resuscitation.^25,26 Animals that achieved ROSC received 0.9% NaCl (30 ml/kg) at the maximum pump rate (999 ml/h) and were monitored for up to 240 minutes, euthanizing those that survived by delivering a right atrial bolus of KCl (150 mg/kg).
For these experiments we used a higher EMPA dose corresponding to 0.5 mg/kg.
For this purpose, a stock solution was prepared by dissolving 90.2 mg of EMPA (Sigma, St. Louis, Mo., MW 450.92) in 8 ml of 100% DMSO to obtain a […] solution. This stock solution was diluted in saline to 5 mM. Given an estimated blood volume of 2.5 L for a 40-kg pig, 44.64 μmoles (i.e., 8.9 ml of the 5 mM solution) of EMPA was given in bolus dose into the right atrium immediately before starting CPR to attain the target blood concentration of 17.8 μM (0.8026 mg/di) after initial blood volume distribution. […]

[5] = test system: obese rats with diastolic dysfunction; details: cited from earlier work
[6] = test system: patients with type 2 diabetes; details: cited from earlier work
isolated cardiomyocytes = details: cited from earlier work
[7] = 25 mg oral dose in humans; cited from earlier work
[8] = test system: coronary occlusion and reperfusion; details: oral, 24 hours and 2 hours before coronary occlusion; cited from earlier work
ischemia-reperfusion = details: rat and swine models of ischemia-reperfusion; cited from earlier work
[9] = test system: coronary occlusion and reperfusion; details: rat, in vivo; cited from earlier work
[10] = vs control, statistically significant

## CC(C)c1ccc(C(=O)NC(=N)N)cc1S(C)(=O)=O [cariporide]
[1]
  myocardial wall thickening and reduction in left ventricular cavity size: significant amelioration

## OC[C@H]1O[C@@H](c2ccc(Cl)c(Cc3ccc(O[C@H]4CCOC4)cc3)c2)[C@H](O)[C@@H](O)[C@@H]1O [EMPA, Empagliflozin]
[2]; between EMPA and control groups
  myocardial changes during the resuscitation effort: no myocardial differences
[2]; developed in control animals
  increases in Tau, the relaxation time constant, post-resuscitation: not observed
  progressive left ventricular wall thickening post-resuscitation: not observed
[2]; same in both groups
  cumulative energy required to terminate VF: 60 J
[2]; vs control
  NE doses received post-resuscitation: lower
  PETCO2 post-resuscitation: markedly higher
[2]; vs control, n=3 per group, not statistically significant
  heart rate post-resuscitation: lower
[2]; vs control, n=3 per group, statistically significant
  MAP post-resuscitation: statistically significant higher
[2]; vs control, did not achieve statistical significance
  coronary vascular resistance post-resuscitation: slightly lower
[2]; [10]
  LAD blood flow post-resuscitation: substantially higher
  cardiac index post-resuscitation: markedly higher
  left ventricular stroke work index post-resuscitation: higher
  stroke volume index post-resuscitation: higher
CaMKII
  CaMKII activity: reduction
Isolated mice hearts; EMPA 1 μM, 18 minutes prior to ischemia and 25 minutes of ischemia
  onset of myocardial contracture during ischemia: delayed
Isolated mice hearts; global ischemia and reperfusion
  infarct size: reduced
[3]
  adverse effect: had not shown adverse effect
[4]; 0.5 mg/kg, n=8, comparator 29±7
  end-tidal PCO2 during CPR: 36±7 mmHg
[4]; vs comparator
  left ventricular stroke work index post-resuscitation: higher
  mean arterial pressure post-resuscitation: lower
  stroke volume index post-resuscitation: higher
  systemic vascular resistance post-resuscitation: lower
[4]; vs comparator, average of 120, 180, 240 min
  cardiac index post-resuscitation: higher
[4]; vs comparator, not shown
  pulmonary vascular resistance post-resuscitation: lower
[5]; after 30 minutes
  isovolumic relaxation time: improved
[5]; single EMPA injection, obese rats
  blood concentration: 8.68 µM
[6]
  reduction in the relative risk of cardiovascular death: 38%
  risk reduction of hospitalization for heart failure: 35%
Isolated cardiomyocytes
  cytosolic sodium and cytosolic calcium: reductions
[7]
  blood concentration: 0.69 µM

## Cc1ccc([C@@H]2O[C@H](CO)[C@@H](O)[C@H](O)[C@H]2O)cc1Cc1ccc(-c2ccc(F)cc2)s1 [canagliflozin]
[8]
  stroke volume and cardiac output after reperfusion: better
ischemia-reperfusion
  reductions in infarct size: up to 60%
[9]
  infarct size: reduced
  systolic and diastolic dysfunction: ameliorated
